Our source for the Ki and EC50 values is patent US20250304559A1, “Ether-Linked Antiviral Compounds” (Pfizer Inc., priority 2021, published 2025).

Like-named read-outs stand apart in the source and are kept apart here.

For one experiment, the target named is T1, SARS-CoV-2 3CL protease (Severe acute respiratory syndrome coronavirus 2, UniProt P0DTD1).
T1 construct: measures the activity of full-length SARS-CoV-2 3CL protease
The experiment can be described thus: SARS-CoV-2 Coronavirus 3C Protease FRET Assay. Type of experiment: biochemical. The conditions noted are these: Morrison equation fit, 15 nM enzyme, 25 μM peptide substrate.

The subject of experiment [1] is SARS-CoV-2 (USA_WA1/2020). The experiment can be described thus: Antiviral Activity from SARS-CoV-2 Infection (cytopathic effect, Cell Titer-Glo). The conditions noted are these: Severe acute respiratory syndrome coronavirus 2, Vero C1008, 72 h, VeroE6 cells enriched for hACE2, MOI 0.002, 3-day incubation; tested alone or with P-gp inhibitor CP-100356 2 μM (table does not say which); read-out: Geometric Mean EC50. Type of experiment: cell-based.

[2] abbreviates: Examples 14-78 and 114 (second head of Table 2), read-out: Geometric Mean Ki (nM) IC50.
[3] abbreviates: Examples 1-13, 60 minutes at 23° C., read-out: Geometric Mean Ki.

In the case of `CCc1c(OCC(=O)[C@H](C[C@@H]2CCNC2=O)NC(=O)[C@@H]2[C@@H]3[C@H](CN2C(=O)[C@@H](NC(=O)C(F)(F)F)C(C)C)C3(C)C)noc1C` [Example 67, (1R,2S,5S)-N-{(2S)-4-[(4-ethyl-5-methyl-1,2-oxazol-3-yl)oxy]-3-oxo-1-[(3S)-2-oxopyrrolidin-3-yl]butan-2-yl}-6,6-dimethyl-3-[N-(trifluoroacetyl)-L-valyl]-3-azabicyclo[3.1.0]hexane-2-carboxamide], on SARS-CoV-2 3CL protease (setting [2]), the Ki – broadly, a measure of affinity in units of concentration, obtained from inhibition or displacement – came out at 107 nM. In experiment [1], the concentration giving a half-maximal response (EC50) – broadly, the concentration at which the effect is half-maximal – stood at 1750 nM.

`CC(C)[C@H](NC(=O)C(F)(F)F)C(=O)N1C[C@H]2[C@@H]([C@H]1C(=O)N[C@@H](C[C@@H]1CCNC1=O)C(=O)COc1ccc(F)cc1)C2(C)C` [Example 52, (1R,2S,5S)-N-{(2S)-4-(4-fluorophenoxy)-3-oxo-1-[(3S)-2-oxopyrrolidin-3-yl]butan-2-yl}-6,6-dimethyl-3-[N-(trifluoroacetyl)-L-valyl]-3-azabicyclo[3.1.0]hexane-2-carboxamide]: the inhibition constant Ki on SARS-CoV-2 3CL protease (setting [2]) is 10.5 nM. Also, the concentration giving a half-maximal response (EC50) in experiment [1] was 73.3 nM.

Regarding `CC(C)[C@H](NC(=O)C(F)(F)F)C(=O)N1C[C@H]2[C@@H]([C@H]1C(=O)N[C@@H](C[C@@H]1CCNC1=O)C(=O)COc1cc(F)ccc1F)C2(C)C` [Example 53, (1R,2S,5S)-N-{(2S)-4-(2,5-difluorophenoxy)-3-oxo-1-[(3S)-2-oxopyrrolidin-3-yl]butan-2-yl}-6,6-dimethyl-3-[N-(trifluoroacetyl)-L-valyl]-3-azabicyclo[3.1.0]hexane-2-carboxamide], the inhibition constant (Ki) at SARS-CoV-2 3CL protease (setting [2]) came to 12 nM. The EC50 in experiment [1] was determined as 72.8 nM.

For `CC(C)[C@H](NC(=O)C(F)(F)F)C(=O)N1C[C@H]2[C@@H]([C@H]1C(=O)N[C@@H](C[C@@H]1CC(O)NC1=O)C(=O)COc1ccc(F)cc1F)C2(C)C` (stereo partly drawn) [Example 39, (1R,2S,5S)-N-{(2S)-4-(2,4-difluorophenoxy)-1-[(3R)-5-hydroxy-2-oxopyrrolidin-3-yl]-3-oxobutan-2-yl}-6,6-dimethyl-3-[N-(trifluoroacetyl)-L-valyl]-3-azabicyclo[3.1.0]hexane-2-carboxamide], the Ki at SARS-CoV-2 3CL protease (setting [2]) amounted to 3.7 nM. Moreover, the EC50 in experiment [1] was 306 nM.

As to `Cn1nc(C(F)(F)F)cc1OCC(=O)[C@H](C[C@@H]1CCNC1=O)NC(=O)[C@@H]1[C@@H]2[C@H](CN1C(=O)[C@@H](NC(=O)C(F)(F)F)C(C)(C)C)C2(C)C` [Example 8, (1R,2S,5S)-6,6-dimethyl-3-[3-methyl-N-(trifluoroacetyl)-L-valyl]-N-{(2S)-4-{[1-methyl-3-(trifluoromethyl)-1H-pyrazol-5-yl]oxy}-3-oxo-1-[(3S)-2-oxopyrrolidin-3-yl]butan-2-yl}-3-azabicyclo[3.1.0]hexane-2-carboxamide], the Ki on SARS-CoV-2 3CL protease (setting [3]) came to 2.87 nM. Besides, the EC50 in experiment [1] was determined as 49.1 nM.

As to `CC(C)[C@H](NC(=O)C(F)(F)F)C(=O)N1C[C@H]2[C@@H]([C@H]1C(=O)N[C@@H](C[C@@H]1CCNC1=O)C(=O)COc1cc(F)cc(F)c1)C2(C)C` [Example 58, (1R,2S,5S)-N-{(2S)-4-(3,5-difluorophenoxy)-3-oxo-1-[(3S)-2-oxopyrrolidin-3-yl]butan-2-yl}-6,6-dimethyl-3-[N-(trifluoroacetyl)-L-valyl]-3-azabicyclo[3.1.0]hexane-2-carboxamide], the inhibition constant Ki at SARS-CoV-2 3CL protease (setting [2]) was 17.1 nM. The concentration for a half-maximal effect (EC50) in experiment [1] is 88.7 nM.

Take `CC(C)(C)[C@H](NC(=O)C(F)(F)F)C(=O)N1C[C@H]2[C@@H]([C@H]1C(=O)N[C@@H](C[C@@H]1CCNC1=O)C(=O)COc1cccc(C(F)(F)F)c1)C2(C)C` [Example 12, (1R,2S,5S)-6,6-dimethyl-3-[3-methyl-N-(trifluoroacetyl)-L-valyl]-N-{(2S)-3-oxo-1-[(3S)-2-oxopyrrolidin-3-yl]-4-[3-(trifluoromethyl)phenoxy]butan-2-yl}-3-azabicyclo[3.1.0]hexane-2-carboxamide]: the Ki on SARS-CoV-2 3CL protease (setting [3]) worked out at 6.38 nM. The EC50 in experiment [1] was 51.2 nM.

For the molecule `CC(C)[C@H](NC(=O)C(F)(F)F)C(=O)N1C[C@H]2[C@@H]([C@H]1C(=O)N[C@@H](C[C@@H]1CCNC1=O)C(=O)COc1ccccc1)C2(C)C` [Example 23, (1R,2S,5S)-6,6-dimethyl-N-{(2S)-3-oxo-1-[(3S)-2-oxopyrrolidin-3-yl]-4-phenoxybutan-2-yl}-3-[N-(trifluoroacetyl)-L-valyl]-3-azabicyclo[3.1.0]hexane-2-carboxamide], the Ki on SARS-CoV-2 3CL protease (setting [2]) turned out to be 1.78 nM. The EC50 in experiment [1] turned out to be 32 nM.

As for `CC(C)[C@H](NC(=O)C(F)(F)F)C(=O)N1C[C@H]2[C@@H]([C@H]1C(=O)N[C@@H](C[C@@H]1CCNC1=O)C(=O)COc1nnc3c(F)cccn13)C2(C)C` [Example 75, (1R,2S,5S)-N-{(2S)-4-[(8-fluoro[1,2,4]triazolo[4,3-a]pyridin-3-yl)oxy]-3-oxo-1-[(3S)-2-oxopyrrolidin-3-yl]butan-2-yl}-6,6-dimethyl-3-[N-(trifluoroacetyl)-L-valyl]-3-azabicyclo[3.1.0]hexane-2-carboxamide], on SARS-CoV-2 3CL protease (setting [2]), the inhibitory constant (Ki) was found to be 2900 nM. For the same molecule, in experiment [1], the EC50 is over 76800 nM.

With `CC(C)(C)[C@H](NS(=O)(=O)C(F)(F)F)C(=O)N1C[C@H]2[C@@H]([C@H]1C(=O)N[C@@H](C[C@@H]1CC(=O)NC1=O)C(=O)COc1ccc(F)cc1F)C2(C)C` [Example 44, (1R,2S,5S)-N-{(2S)-4-(2,4-difluorophenoxy)-1-[(3R)-2,5-dioxopyrrolidin-3-yl]-3-oxobutan-2-yl}-6,6-dimethyl-3-[3-methyl-N-(trifluoromethanesulfonyl)-L-valyl]-3-azabicyclo[3.1.0]hexane-2-carboxamide], at SARS-CoV-2 3CL protease (setting [2]), the Ki came to 8.95 nM. Besides, the 50% effective concentration (EC50) in experiment [1] is 408 nM.

Take `CCC([C@H](NC(=O)C(F)(F)F)C(=O)N1C[C@H]2[C@@H]([C@H]1C(=O)N[C@@H](C[C@@H]1CCNC1=O)C(=O)COc1ccc(F)cc1F)C2(C)C)C(F)(F)F` (stereo in doubt) [Example 57, (1R,2S,5S)-N-{(2S)-4-(2,4-difluorophenoxy)-3-oxo-1-[(3S)-2-oxopyrrolidin-3-yl]butan-2-yl}-6,6-dimethyl-3-[3′,3′,3′-trifluoro-N-(trifluoroacetyl)-L-isoleucyl]-3-azabicyclo[3.1.0]hexane-2-carboxamide]: the Ki at SARS-CoV-2 3CL protease (setting [2]) is 17.3 nM. In experiment [1], the EC50 came out at 275 nM.

As for `CC(C)[C@H](NS(=O)(=O)C(F)(F)F)C(=O)N1C[C@H]2[C@@H]([C@H]1C(=O)N[C@@H](C[C@@H]1CC(O)NC1=O)C(=O)COc1ccc(F)cc1F)C2(C)C` (stereo partly drawn) [Example 54, (1R,2S,5S)-N-{(2S)-4-(2,4-difluorophenoxy)-1-[(3R)-5-hydroxy-2-oxopyrrolidin-3-yl]-3-oxobutan-2-yl}-6,6-dimethyl-3-[N-(trifluoromethanesulfonyl)-L-valyl]-3-azabicyclo[3.1.0]hexane-2-carboxamide], the Ki on SARS-CoV-2 3CL protease (setting [2]) came out at 11.3 nM. In addition, the EC50 in experiment [1] is 2250 nM.

As for `CC(C)[C@H](NC(=O)C(F)(F)F)C(=O)N1C[C@H]2[C@@H]([C@H]1C(=O)N[C@@H](C[C@@H]1CCNC1=O)C(=O)COc1ccc(F)cc1F)C2(C)C` [Example 1, (1R,2S,5S)-N-{(2S)-4-(2,4-difluorophenoxy)-3-oxo-1-[(3S)-2-oxopyrrolidin-3-yl]butan-2-yl}-6,6-dimethyl-3-[N-(trifluoroacetyl)-L-valyl]-3-azabicyclo[3.1.0]hexane-2-carboxamide], the inhibition constant (Ki) at SARS-CoV-2 3CL protease (setting [3]) was found to be 2.02 nM. Further, in experiment [1], the half-maximal effective concentration (EC50) was determined as 26.9 nM.
